Assay results from publication PMC4336331, “Novel Receptor-Derived Cyclopeptides to Treat Heart Failure Caused by Anti-β1-Adrenoceptor Antibodies in a Human-Analogous Rat Model” (PLoS ONE, 2015).
Peptide text beside a SMILES is read from it.

How the values were obtained:
[1] = test system: IL1-β, TGF-β1 transcripts; assay: qRT-PCR of cardiac profibrotic markers, therapy-study; assay type: in vivo, Lewis/CrlBR rats; conditions: qRT-PCR of apical cardiac tissues, normalised to controls (Fig. 3D)
Method: Total RNA was isolated from frozen myocardium by RNeasy mini Kit (Qiagen, Hilden, Germany). Reverse transcription of total RNA isolated from frozen myocardium was performed in 96-well plates utilising a high capacity RNA-to-cDNA master mix (Applied Biosystems, Foster City, CA). PCR reactions were conducted in the presence of the fluorescent dye Sybr-Green (Cambrex BioScience, East Rutherford, NY) and the reference-dye 6-carboxy-X-rhodamine (ROX) using an ABI PRISM sequence detection system 7700 (Applied Biosystems). All amplification products were controlled for specificity by running a melting curve analysis; results were calculated using the 2^-ΔΔCT method. The relative expression levels were derived from a standard curve and normalised to GAPDH as an endogenous control. Quantitative real-time PCR (qRT-PCR) analyses are presented as fold change compared to untreated (0.9% NaCl-injected) control hearts. […]
Fig 3 Histology of rat hearts (therapy-study). […] (B) Quantification of fibrotic scars in midventricular 2μm-sections (mvhs, mid-ventricular heart-section). […] For all parameters shown, differences between the treatment-groups were assessed by […] one way ANOVA and Dunnett`s post-hoc test; *p<0.05; **p<0.001.

[2] = test system: anti-β1EC2-secreting cells; assay: ELISPOT of splenocytes and bone marrow cells; assay type: in vivo, Lewis/CrlBR rats
Method: (b) For ELISPOT assays plates were coated overnight with either 1.8 μg/ml anti-rat IgG (H+L) or the specific antigens (GST/β1EC2-FP or GST alone) in 50 mM Tris-buffer, pH 9.4. The plates were then washed 3 times, blocked with BSA (3h, 37°C), and incubated overnight at 37°C with splenocytes or bone marrow cells from rats treated as indicated in RPMI 1640/X-VIVO-15 medium supplemented with 10% FCS (1x10^3 to 10^6 cells per well). After 12 h the cells were discarded and the plates were washed several times (PBS/0.5% Tween) before an alkaline phosphatase-conjugated secondary anti-rat-IgG antibody (0.3 μg/ml) was added to detect bound rat IgG. After further incubation (3h, 37°C) and washing-steps (3 times PBS/0.5% Tween) the plates were developed using LMP/BCIP 5:1 (1.0 ml per well; LMP, low melting agarose; BCIP, 5-bromo-4-chloro-3-indolyl phosphate p-toluidine salt, a blue-colored dye).
Fig 5 Immunology of cyclic β1EC2-peptides: fate of β1EC2-specific T- and B-cells. (A) Titer-course of anti-β1EC2-abs in β1EC2-CP-treated rats during the first 6 months of the prevention-study before and 24h after cyclopeptide-injection. Time-points of antigen-boosts are indicated by (red) lines, time-points of CP-injections by (green) arrows. For better readability error-bars are not shown in the graph. (B) Pre-experiments (antigenic recall-assays) performed with CD4^+ T-cells prepared from spleens of GST/β1EC2 fusion-protein (FP)-immunised untreated (n = 3, black) vs. 0.9%NaCl-injected control rats (n = 3, white). (C and D) Reactivities of CD4^+ T-cells prepared from (C) preventively or (D) therapeutically β1EC2-CP- (green) or bisoprolol-treated animals (blue) compared to cells prepared from immunised untreated (black) or corresponding 0.9%NaCl-injected control rats (white). Columns ± error bars represent mean T-cell reactivities ±SEM normalized to medium (abbreviations: EC2-CP, cyclopeptide mimicking β1EC2; GST, glutathion-S-transferase; PPD, purified protein derivative; FP, GST/β1EC2 fusion-protein). […]

Structure (SMILES)	reduction of the increases in cardiac transcripts of profibrotic markers (IL1-β, TGF-β1) [1]	overall numbers of IgG-producing cells, in words ([2]; ELISPOT (Fig. 5F, H, and J))	frequencies of anti-β1EC2-producing (long-lived) PC, in words ([2]; ELISPOT, splenocytes or bone marrow cells two weeks after the last antigen-boost (Fig. 5E and F))	reduction in the frequencies of splenocytes secreting anti-β1EC2-abs, in words ([2]; ELISPOT 3 days after antigen-boost (S5A Fig.))
CC(C)NCC(O)COc1ccc(COCCOC(C)C)cc1 (centres unmarked) [bisoprolol, reference compound]	~50%	–	–	–
CC(C)[C@@H]1NC(=O)[C@H](Cc2ccccc2)NC(=O)[C@H](CC(=O)O)NC(=O)[C@H](CS)NC(=O)[C@H](CS)NC(=O)[C@H](CCCCN)NC(=O)[C@@H]2CCCN2C(=O)[C@H](CC(=O)O)NC(=O)[C@H](CC(N)=O)NC(=O)[C@H](Cc2ccc(O)cc2)NC(=O)[C@H](CS)NC(=O)[C@H](CCCNC(=N)N)NC(=O)[C@H](CCCNC(=N)N)NC(=O)[C@H](C)NC(=O)[C@H](CCC(=O)O)NC(=O)[C@H](CC(=O)O)NC(=O)[C@H](CO)NC(=O)[C@H](CCC(=O)O)NC(=O)[C@H](C)NC(=O)[C@H](CCCNC(=N)N)NC(=O)[C@H](C)NC(=O)[C@H](CCC(N)=O)NC(=O)CNC(=O)[C@H](CCCNC(=N)N)NC(=O)[C@H](CC(N)=O)NC(=O)[C@H]([C@@H](C)O)NC1=O [β1EC2-CP] (cyclo(AESDEARRCYNDPKCCDFVTNRGQAR))	~50%	not at all affected	did not reduce	–
CC(C)[C@H](NC(=O)[C@H](Cc1ccccc1)NC(=O)[C@H](CC(=O)O)NC(=O)[C@H](CS)NC(=O)[C@H](CS)NC(=O)[C@H](CCCCN)NC(=O)[C@@H]1CCCN1C(=O)[C@H](CC(=O)O)NC(=O)[C@H](CC(N)=O)NC(=O)[C@H](Cc1ccc(O)cc1)NC(=O)[C@H](CS)NC(=O)[C@H](CCCNC(=N)N)NC(=O)[C@H](CCCNC(=N)N)NC(=O)[C@H](C)NC(=O)[C@H](CCC(=O)O)NC(=O)[C@H](CC(=O)O)NC(=O)[C@H](CO)NC(=O)[C@H](CCC(=O)O)NC(=O)[C@H](C)NC(=O)[C@H](CCCNC(=N)N)NC(=O)[C@H](C)N)C(=O)N[C@H](C(=O)N[C@@H](CC(N)=O)C(=O)N[C@@H](CCCNC(=N)N)C(=O)NCC(N)=O)[C@@H](C)O [β1EC2-Lin] (H-ARAESDEARRCYNDPKCCDFVTNRG-NH2; N-terminus and C-terminus assumed)	–	–	–	not achieved
